Measurements: US20160115186A1, “PHOSPHORIC ACID/PHOSPHONIC ACID DERIVATIVES AND MEDICINAL USES THEREOF” (priority 2013, published 2016)
Like-named read-outs stand apart in the source and are kept apart here.

How the values were obtained:
[1] = test system: HBV; assay: microbe, parasite or virus in culture; assay type: cell-based
Experimental: At day 10 post-dosing, 100 μl supernate was taken and the content of HBV DNA was measured by the method of Quantitative PCR to calculate IC50 value.

[2] = in vitro; assay type: cell-based; details: human; Hep G 2.2.15 cells, MTT, day 3 post-dosing
Experimental: Hep G 2.2.15 cells were inoculated in a 96-well plate (with cell number being 5.5×10^4) to continually cultivate for 3 days, new culture solutions containing different concentrations of drugs were added, and 3 wells were provided in parallel; at day 3 post-dosing, MTT was added until 7.5 mg/ml, and continued to cultivate for 2 hours, the supernate was discarded, isopropanol containing 10% […] was added, 120 μl/well, and 0.4 μl/well was further added.

[3] = test system: liver damage in mice caused by CCl4; assay type: in vivo, Kunmin mice; details: serum, CCl4 model, 0.2 mmol oral twice, 24 hours after second administration
Experimental: Kunmin mice (20 g) were grouped randomly (8/group). 0.2 mmol of a compound to be tested was orally administered; after 1 hour post-dosing, a 0.1% peanut oil solution of CCl4 was subcutaneously injected (10 mL/kg), to prepare a liver damage model; the normal saline was injected as a normal control group. After modeling for 12 hours, 0.2 mmol of the compound to be tested was orally administrated again. After 24 hours from the second administration, blood samples were collected to take serum specimen so as to determine ALT, AST.

[4] = test system: liver damage in mice caused by D-aminogalactose; assay type: in vivo, Kunmin mice; details: serum, D-aminogalactose 750 mg/kg model, 0.2 mmol oral twice, 24 hours after second administration
Experimental: Kunmin mice (20 g) were grouped randomly (8/group). 0.2 mmol of a compound to be tested was orally administered; after 2 hours post-dosing, D-aminogalactose was intraperitoneally injected at a dose of 750 mg/kg to prepare a liver damage model, and the normal saline was subcutaneously injected as a normal control group. After modeling for 12 hours, 0.2 mmol of the compound to be tested was orally administrated again. After 24 hours from the second administration, blood samples were collected to take serum specimen so as to determine ALT, AST.

[5] = test system: DHBV; assay: animal or person; assay type: in vivo, sheldrakes; details: Duck hepatitis B virus, po, 336 h; for inhibition in vivo at 0.5 mg/kg: 0.5 mg/kg intragastric once a day for 14 days; for inhibition in vivo at 1 mg/kg: 1.0 mg/kg intragastric once a day for 14 days; for inhibition in vivo at 10 mg/kg: 10 mg/kg intragastric once a day for 14 days
Experimental: The sheldrakes infected by vertical transmission and being positive in DHBV DNA detection were grouped randomly, 5/group. Water and different doses of the compound to be tested were intragastrically administrated, respectively, once a day, for 14 days. Venous blood samples were collected pre-dosing, at day 14 of dosing and at day 7 after drug withdrawal, the serum DHBV DNA content was measured using external standard TaqMan real-time fluorescence PCR method, and the inhibition ratio was calculated, as compared to the solvent group.

[6] = Hepatitis B virus, HepG2.2.15, 240 h
[7] = Hepatitis B virus, HepG2.2.15, 240 h, Hep G 2.2.15 cells, HBV DNA in supernate at day 10 post-dosing, read-out: IC50
[8] = serum DHBV DNA, read-out: Inhibition ratio (%) Day 14 of dosing
[9] = serum DHBV DNA, read-out: Inhibition ratio (%) day 7 after drug withdrawal
[10] = read-out: Inhibition ratio (%) Day 14 of dosing
[11] = read-out: Inhibition ratio (%) day 7 after drug withdrawal

SMILES	IC50 [1, 6] [µM]	CC50 at 3 days [2] [µM]	IC50 [1, 7] [µM]	ALT [3] [U/L]	AST [3] [U/L]	ALT [4] [U/L]	AST [4] [U/L]	other results
Nc1ccn(C2CSC(COP(=O)(Oc3ccc4c(c3)OCO4)Oc3ccc4c(c3)OCO4)O2)c(=O)n1 (stereo not shown) [Compound I14, 5′-bis-[((benzo[1,3]dioxolan-5-yl)-oxyl)-phosphoryl]-2′,3′-dideoxy-3′-thia-cytidine]	5.28	> 200	–	–	–	–	–	–
C=C1[C@H](CO[P@](=O)(N[C@@H](C)C(=O)OC(C)C)Oc2ccc3c(c2)OCO3)[C@@H](O)C[C@@H]1n1cnc2c(=O)[nH]c(N)nc21 [Compound I38-a]	–	–	0.001	410	289	177	275	CC50 [2]: 139 µM; inhibition in vivo at 0.5 mg/kg [5, 8]: 76.2%; inhibition in vivo at 0.5 mg/kg [5, 9]: 31.4%
Nc1ncnc2c1ncn2CCOCP(=O)(Oc1cccc2c1OCO2)Oc1cccc2c1OCO2 [Compound I1, 9-[[[bis-((benzo[1,3]dioxolan-4-yl)-oxyl)-phosphonyl]-methoxyl]-ethyl]-adenine]	8.05	> 200	–	328	433	679	796	–
C=C1[C@H](CO[P@@](=O)(N[C@@H](C)C(=O)OC(C)C)Oc2ccc3c(c2)OCO3)[C@@H](O)C[C@@H]1n1cnc2c(=O)[nH]c(N)nc21 [Compound I38-b]	–	–	0.09	162	387	217	493	CC50 [2]: > 200 µM; inhibition in vivo at 0.5 mg/kg [5, 8]: 96.4%; inhibition in vivo at 0.5 mg/kg [5, 9]: 63.4%
Nc1nc2c(ncn2COCCOP(=O)(Oc2cccc3c2OCO3)Oc2cccc3c2OCO3)c(=O)[nH]1 [Compound I11, 9-[[[bis-((benzo[1,3]dioxolan-4-yl)-oxyl)-phosphoryloxyl]-ethoxyl]-methyl]-guanine]	1.66	> 200	–	–	–	–	–	–
C=C1[C@H](CO[P@@](=O)(N[C@@H](C)C(=O)OC(C)C)Oc2ccccc2)[C@@H](O)C[C@@H]1n1cnc2c(=O)[nH]c(N)nc21 [i-5, 2-amino-1,9-dihydro-9-[(1S,3R,4S)-4-hydroxyl-3-((S)—((S)-1-isopropoxycarbonylethylamino-phenoxy-phosphoryl)-oxymethyl)-2-methylenecyclopentyl]-6H-purin-6-one, reference compound]	–	–	0.012	551	641	1512	1646	CC50 [2]: 193 µM; inhibition in vivo at 1 mg/kg [5, 8]: 88.9%; inhibition in vivo at 1 mg/kg [5, 9]: 15.7%
Nc1ncnc2c1ncn2CCOCP(=O)(Oc1ccc2c(c1)OCCO2)Oc1ccc2c(c1)OCCO2 [Compound I4, 9-[[[bis-((benzo[1,4]dioxan-6-yl)-oxyl)-phosphonyl]-methoxyl]-ethyl]-adenine]	3.19	> 200	–	–	–	–	–	–
COC(=O)C(C)NP(=O)(OCC1OC(n2ccc(N)nc2=O)CS1)Oc1ccccc1 (stereo not shown) [Cf1109, reference compound]	–	–	0.13	2048	3351	191	140	CC50 [2]: 82 µM; inhibition in vivo at 20 mg/kg ([5]; serum DHBV DNA, 20 mg/kg intragastric once a day for 14 days, read-out: Inhibition ratio (%) Day 14 of dosing): 68.8%; inhibition in vivo at 20 mg/kg ([5]; serum DHBV DNA, 20 mg/kg intragastric once a day for 14 days, read-out: Inhibition ratio (%) day 7 after drug withdrawal): 5.38%
Nc1nc2c(ncn2COCCOP(=O)(Oc2ccc3c(c2)OCO3)Oc2ccc3c(c2)OCO3)c(=O)[nH]1 [Compound I12, 9-[[[bis-((benzo[1,3]dioxolan-5-yl)-oxyl)-phosphoryloxyl]-ethoxyl]-methyl]-guanine]	0.24	> 200	–	–	–	–	–	–
Nc1nc2c(ncn2COCCO)c(=O)[nH]1 [Acyclovir, acyclovir, reference compound]	–	–	25.6	–	–	–	–	inhibition in vivo at 20 mg/kg [5, 10]: 12.5%; inhibition in vivo at 20 mg/kg [5, 11]: 2.64%
COc1nc(N)nc2c1ncn2COCCOP(=O)(Oc1ccc2c(c1)OCO2)Oc1ccc2c(c1)OCO2 [Compound I13, 2-amino-6-methoxyl-9-[[[bis-((benzo[1,3]dioxolan-5-yl)-oxyl)-phosphoryloxyl]-ethoxyl]-methyl]-purine]	0.29	> 200	–	–	–	–	–	–
CC(C)OC(=O)[C@H](NP(=O)(CO[C@H](C)Cn1cnc2c(N)ncnc21)Oc1ccc2c(c1)OCO2)C(C)C (stereo partly shown) [Compound I22]	0.17	> 200	–	–	–	–	–	–
Nc1ncnc2c1ncn2CCOCP(=O)(Oc1ccc2c(c1)OCO2)Oc1ccc2c(c1)OCO2 [Compound I2, 9-[[[bis-((benzo[1,3]dioxolan-5-yl)-oxyl)-phosphonyl]-methoxyl]-ethyl]-adenine]	0.47	> 200	–	435	764	514	560	–
Nc1ncnc2c1ncn2CCOCP(=O)(Oc1cccc2ccccc12)Oc1cccc2ccccc12 [i-2, 9-[[bis-(naphthoxy)-phosphonyl-methoxyl]-ethyl]-adenine, reference compound]	1.92	152	–	3482	3660	1374	1812	–
Nc1ncnc2c1ncn2CCOCP(=O)(Oc1cccc2c1OCCO2)Oc1cccc2c1OCCO2 [Compound I3, 9-[[[bis-((benzo[1,4]dioxan-5-yl)-oxyl)-phosphonyl]-methoxyl]-ethyl]-adenine]	6.07	> 200	–	–	–	–	–	–
C[C@H](Cn1cnc2c(N)ncnc21)OCP(=O)(Oc1ccc2c(c1)OCO2)Oc1ccc2c(c1)OCO2 [Compound I6, 9-[(R)-2-[[bis-((benzo[1,3]dioxolan-5-yl)-oxyl)-phosphonyl]-methoxyl]-propyl]-adenine]	0.41	> 200	–	–	–	–	–	–
COc1nc(N)nc2c1ncn2COCCOP(=O)(N[C@H](C)C(=O)OC(C)C)Oc1ccc2c(c1)OCO2 (stereo partly shown) [Compound I29]	–	–	0.14	307	561	301	510	CC50 [2]: > 200 µM; inhibition in vivo at 10 mg/kg [5, 8]: 90.8%; inhibition in vivo at 10 mg/kg [5, 9]: 17.1%
C=C1[C@H](COP(=O)(Oc2ccc3c(c2)OCO3)Oc2ccc3c(c2)OCO3)[C@@H](O)C[C@@H]1n1cnc2c(=O)[nH]c(N)nc21 [Compound I15, 9-[(1S,3R,4S)-4-hydroxyl-3-(bis-(((benzo[1,3]dioxolan-5-yl)-oxyl)-phosphoryl)-oxymethyl)-2-methylenecyclopentyl]-guanine]	0.12	> 200	–	–	–	–	–	–
COC(=O)[C@@H](C)NP(=O)(CO[C@H](C)Cn1cnc2c(N)ncnc21)Oc1ccc2c(c1)OCO2 (stereo partly shown) [Compound I19]	0.008	146	–	–	–	–	–	–
CC(C)OC(=O)[C@@H](C)NP(=O)(CO[C@H](C)Cn1cnc2c(N)ncnc21)Oc1cccc2c1OCO2 (stereo partly shown) [Compound I24]	4.6	> 200	–	–	–	–	–	–
Nc1ncnc2c1ncn2CCOCP(=O)(Oc1ccccc1)Oc1ccccc1 [i-1, 9-[[bis-(phenoxyl)-phosphonyl-methoxyl]-ethyl]-adenine, reference compound]	–	–	–	2930	2943	1227	1456	IC50 ([1]; Hep G 2.2.15 cells, HBV DNA in supernate at day 10 post-dosing, read-out: IC50): 11.3 µM
Nc1ccn([C@@H]2CS[C@H](CO)O2)c(=O)n1 [Lamivudine, lamivudine, reference compound]	–	–	0.075	–	–	–	–	inhibition in vivo at 20 mg/kg [5, 10]: 76.1%; inhibition in vivo at 20 mg/kg [5, 11]: 2.35%
